Laboratory results as given in patent publication US12233060B2, “Inhibitors of Ataxia-Telangiectasia Mutated and Rad3-related protein kinase (ATR) for use in methods of treating cancer” (THE INSTITUTE OF CANCER RESEARCH: ROYAL CANCER HOSPITAL, priority 2016, dated 2025).

Experiments:
[1] = system: TOV21G (ARID1A mutant) and RMG1 (ARID1A wildtype) cells; test: Five-day dose response in OCCC cell lines TOV21G and RMG1; format: cell-based, human; details: 5 days exposure
Method: FIG. 3. In vivo ARID1A/ATR synthetic lethality. A. Schematic of VX-970 therapy experiment in mice bearing established HCT116 ARID1A^+/+ and ARID1A^−/− xenografts. Cells were inoculated subcutaneously into nude mice and tumors allowed to establish for 10 days. Mice were then randomized to treatment regimens of either VX-970 (60 mg/kg, 4× weekly by oral gavage) or vehicle. Mice were then treated for a subsequent 40 days. Tumor volume was monitored twice weekly. B. Relative tumor volume plot from (A) showing efficacy of VX-970 and selectivity for ARID1A^−/− xenografts* p=0.024, ANOVA. C. Schematic of tumor incidence experiment in mice with non-established HCT116 ARID1A^+/+ and ARID1A^−/− xenografts. Mice were inoculated with cells as before, randomized and then treated with VX-970. […] Tumor volume was monitored twice weekly and overall tumour incidence was assessed 40 days later. […] PARP-1, cleaved PARP-1 (85 kDa fragment) and tubulin were detected by western blot. […] Caspase3/7 activity was assessed using Caspase-Glo and total cellular viability was estimated using CellTitre-Glo. Luminescence ratios for Caspase-Glo (i.e. apoptotic cells) and CellTitre-Glo (ie viable cells) was determined for each dose and normalized to DMSO treated samples. *Student's t-test, p<0.05. […]
Short-term survival assays were performed in 384-well plates. […] Colonies were counted manually. […]

[2] = target: ATR (Homo sapiens, UniProt Q13535); details: ATR catalytic inhibitor; reference 15; cited from earlier work
[3] = system: Arid1a+/+ and Arid1a−/− mouse embryonic stem (ES) cells; test: Clonogenic survival of mouse Arid1a isogenic ES cells; format: cell-based; details: p<0.001 ANOVA
Method: FIG. 2. In vitro ARID1A/ATR synthetic lethality. A. Chemical structure of VX-970. B. Western blot of ARID1A in human ARID1A isogenic HCT116 cells. C. Image of colonies in 6 well-plate clonogenic assay. HCT116 ARID1A isogenic (^+/+ and ^−/−) cell lines were exposed to increasing concentrations of the VE-821 (0, 0.1, 1 uM) and VX-970 (0, 0.01, 0.05 uM) for 14 days. D and E. Dose response clonogenic survival curve of HCT116 ARID1A isogenic (^+/+ and ^−/−) cell lines exposed to increasing concentrations of the VE-821 and VX-970 for 14 days. Error bars represent SD from triplicate experiments, ANOVA p-value of <0.0001. F. Area under curve (AUC) box whisker comparison plot for human tumor cell lines exposed to VX-970 for five days. ARID1A wild type tumor cell lines (n=15) were compared to ARID1A mutant cell lines (n=9). Student's t-test p=0.00594. G. Dose response clonogenic survival curve of mouse Arid1a isogenic ES cell lines. Experiment was performed as per (C). Error bars represent SD from triplicate experiments, ANOVA p value of <0.0001. H. Western blot of Arid1a protein expression in mouse ES Arid1a isogenic cells. […]
(§1) Short-term survival assays were performed in 384-well plates. […] Drug was added 24 h after seeding and cells were continuously exposed to the drug for five days, after which cell viability was estimated using CellTitre-Glo luminescence (Promega). […] Colonies were counted manually. […]

[4] = system: HCC1143 cells; test: 384 well plate cell survival after ARID1A siRNA transfection; format: cell-based, human; details: ARID1A siRNA vs control, five continuous days exposure
Description: FIG. 1. […] A. Structure of VE-821 and schematic describing workflow for parallel VE-821 chemosensitisation screens in MCF12A and HCC1143 cells. B. Scatter plots of VE-821 Drug Effect (DE) Z-scores from all 1280 siRNAs used in the in the chemosensitisation screens. The DE Z-score threshold of −2 (red line) was used for defining candidate synthetic lethal interactions is shown. C. Venn diagram of DE<−2 VE-821 sensitisation hits in MCF12A and HCC1143 cells. Numbers shown indicate number of sensitisation genes. Amongst the 30 genes with DE Z-scores <−2 in both cell lines, seven well-established tumour suppressor genes were identified. D. Bar charts illustrating DE Z-scores for control, non-targeting, siRNAs (siALLSTAR, siCON1, siCON2) and ARID1A siRNAs in the chemosensitisation screens. Values shown are median from triplicate screens and error bars represent SD. […]
A siRNA library was purchased from Dharmacon. […] RNAi screening conditions were optimised and raw CellTitre-Glo (Promega) luminescent viability readings were generated as previously described21. […]
as §1

[5] = system: HCT116 ARID1A isogenic (+/+ and −/−) cell lines; test: Clonogenic survival of ARID1A isogenic cells; format: cell-based, human
Method: FIG. 2. In vitro ARID1A/ATR synthetic lethality. A. Chemical structure of VX-970. B. Western blot of ARID1A in human ARID1A isogenic HCT116 cells. C. Image of colonies in 6 well-plate clonogenic assay. HCT116 ARID1A isogenic (^+/+ and ^−/−) cell lines were exposed to increasing concentrations of the VE-821 (0, 0.1, 1 uM) and VX-970 (0, 0.01, 0.05 uM) for 14 days. D and E. Dose response clonogenic survival curve of HCT116 ARID1A isogenic (^+/+ and ^−/−) cell lines exposed to increasing concentrations of the VE-821 and VX-970 for 14 days. Error bars represent SD from triplicate experiments, ANOVA p-value of <0.0001. F. Area under curve (AUC) box whisker comparison plot for human tumor cell lines exposed to VX-970 for five days. ARID1A wild type tumor cell lines (n=15) were compared to ARID1A mutant cell lines (n=9). Student's t-test p=0.00594. G. Dose response clonogenic survival curve of mouse Arid1a isogenic ES cell lines. Experiment was performed as per (C). Error bars represent SD from triplicate experiments, ANOVA p value of <0.0001. H. Western blot of Arid1a protein expression in mouse ES Arid1a isogenic cells. I. Z score box whisker comparison plot for 86 human tumor cell lines transfected with ATR siRNA. Cells lines were transfected with siRNA and cell viability was estimated five days later by Cell Titre Glo reagent.
Short-term survival assays were performed in 384-well plates. Exponentially growing cells were plated at a concentration of 500 cells/well. Drug was added 24 h after seeding and cells were continuously exposed to the drug for five days, after which cell viability was estimated using CellTitre-Glo luminescence (Promega). For clonogenic assays, cells were seeded in 6-well plates (500 cells/well) and continuously exposed to drug 24!h after seeding for 14 days. Media containing fresh drug was replaced every 72 hours. Cells were fixed with 10% trichloroacetic acid and stained with sulphorhodamine B (Sigma-Aldrich, Gillingham, UK). Colonies were counted manually. All cell-based assays were performed at least in triplicate.

Sequence of ATR (Q13535 whole entry): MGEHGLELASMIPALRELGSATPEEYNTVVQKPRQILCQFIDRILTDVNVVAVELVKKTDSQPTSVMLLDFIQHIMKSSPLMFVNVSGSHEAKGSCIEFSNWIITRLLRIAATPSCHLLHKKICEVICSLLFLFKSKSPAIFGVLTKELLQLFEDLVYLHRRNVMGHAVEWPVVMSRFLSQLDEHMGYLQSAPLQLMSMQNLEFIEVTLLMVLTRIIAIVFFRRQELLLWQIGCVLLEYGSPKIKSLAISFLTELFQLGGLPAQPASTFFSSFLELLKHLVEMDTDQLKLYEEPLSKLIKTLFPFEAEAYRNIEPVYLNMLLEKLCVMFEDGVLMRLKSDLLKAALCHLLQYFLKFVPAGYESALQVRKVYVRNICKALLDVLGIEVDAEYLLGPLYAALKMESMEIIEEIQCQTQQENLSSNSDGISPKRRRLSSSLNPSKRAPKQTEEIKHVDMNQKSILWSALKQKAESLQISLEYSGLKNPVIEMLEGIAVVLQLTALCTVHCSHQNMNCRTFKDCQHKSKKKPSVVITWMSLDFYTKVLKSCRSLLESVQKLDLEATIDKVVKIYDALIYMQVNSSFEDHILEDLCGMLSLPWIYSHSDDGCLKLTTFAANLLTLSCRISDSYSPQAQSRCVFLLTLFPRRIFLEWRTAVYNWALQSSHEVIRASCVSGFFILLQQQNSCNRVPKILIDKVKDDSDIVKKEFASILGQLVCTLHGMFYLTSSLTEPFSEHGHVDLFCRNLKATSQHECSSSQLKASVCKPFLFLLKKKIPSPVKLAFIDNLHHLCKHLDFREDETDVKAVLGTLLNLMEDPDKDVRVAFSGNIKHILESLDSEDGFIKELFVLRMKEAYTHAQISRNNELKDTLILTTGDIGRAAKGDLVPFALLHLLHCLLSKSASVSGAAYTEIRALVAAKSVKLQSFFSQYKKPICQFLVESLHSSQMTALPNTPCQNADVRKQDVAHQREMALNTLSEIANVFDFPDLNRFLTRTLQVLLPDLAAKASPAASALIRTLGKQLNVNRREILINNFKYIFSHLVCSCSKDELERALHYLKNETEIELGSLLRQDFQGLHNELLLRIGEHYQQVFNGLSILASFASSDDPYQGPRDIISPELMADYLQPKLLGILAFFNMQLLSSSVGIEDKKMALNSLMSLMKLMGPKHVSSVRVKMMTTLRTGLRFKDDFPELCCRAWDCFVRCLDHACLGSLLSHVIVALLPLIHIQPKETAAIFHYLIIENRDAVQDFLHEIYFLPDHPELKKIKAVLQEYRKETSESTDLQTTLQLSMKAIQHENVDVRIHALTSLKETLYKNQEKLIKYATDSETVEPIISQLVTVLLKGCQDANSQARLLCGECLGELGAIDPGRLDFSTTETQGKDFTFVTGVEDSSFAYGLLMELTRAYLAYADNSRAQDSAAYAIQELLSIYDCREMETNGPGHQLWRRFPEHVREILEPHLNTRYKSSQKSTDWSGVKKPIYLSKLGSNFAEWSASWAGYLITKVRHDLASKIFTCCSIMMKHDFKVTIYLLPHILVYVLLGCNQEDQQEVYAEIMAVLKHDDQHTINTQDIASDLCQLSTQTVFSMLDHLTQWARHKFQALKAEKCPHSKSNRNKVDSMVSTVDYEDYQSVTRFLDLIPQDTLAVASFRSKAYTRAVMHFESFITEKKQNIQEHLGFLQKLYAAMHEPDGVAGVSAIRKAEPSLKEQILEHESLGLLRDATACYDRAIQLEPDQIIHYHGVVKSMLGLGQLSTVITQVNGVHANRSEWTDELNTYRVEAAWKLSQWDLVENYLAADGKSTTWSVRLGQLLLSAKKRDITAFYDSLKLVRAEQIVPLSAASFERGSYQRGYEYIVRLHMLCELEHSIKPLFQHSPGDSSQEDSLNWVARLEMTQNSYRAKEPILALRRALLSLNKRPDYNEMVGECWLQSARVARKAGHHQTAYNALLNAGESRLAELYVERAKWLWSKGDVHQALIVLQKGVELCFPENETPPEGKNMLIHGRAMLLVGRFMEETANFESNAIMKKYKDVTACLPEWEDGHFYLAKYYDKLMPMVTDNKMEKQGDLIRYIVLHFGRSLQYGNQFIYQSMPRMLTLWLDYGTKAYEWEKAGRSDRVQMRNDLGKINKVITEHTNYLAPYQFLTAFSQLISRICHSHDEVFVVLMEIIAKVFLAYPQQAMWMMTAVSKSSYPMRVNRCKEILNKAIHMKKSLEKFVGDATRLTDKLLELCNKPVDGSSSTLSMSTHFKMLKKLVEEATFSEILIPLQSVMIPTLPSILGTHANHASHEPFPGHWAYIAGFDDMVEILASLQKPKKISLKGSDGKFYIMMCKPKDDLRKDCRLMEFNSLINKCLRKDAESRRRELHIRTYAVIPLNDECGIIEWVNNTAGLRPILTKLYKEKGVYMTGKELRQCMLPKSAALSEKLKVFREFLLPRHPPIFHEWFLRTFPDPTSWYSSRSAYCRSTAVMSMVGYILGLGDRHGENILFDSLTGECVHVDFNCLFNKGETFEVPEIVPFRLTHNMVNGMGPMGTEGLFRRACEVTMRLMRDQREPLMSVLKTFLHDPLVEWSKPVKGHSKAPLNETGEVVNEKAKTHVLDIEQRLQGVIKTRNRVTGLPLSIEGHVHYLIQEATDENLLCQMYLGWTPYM
Sequence of ATR (Q8WXE1 whole entry partner): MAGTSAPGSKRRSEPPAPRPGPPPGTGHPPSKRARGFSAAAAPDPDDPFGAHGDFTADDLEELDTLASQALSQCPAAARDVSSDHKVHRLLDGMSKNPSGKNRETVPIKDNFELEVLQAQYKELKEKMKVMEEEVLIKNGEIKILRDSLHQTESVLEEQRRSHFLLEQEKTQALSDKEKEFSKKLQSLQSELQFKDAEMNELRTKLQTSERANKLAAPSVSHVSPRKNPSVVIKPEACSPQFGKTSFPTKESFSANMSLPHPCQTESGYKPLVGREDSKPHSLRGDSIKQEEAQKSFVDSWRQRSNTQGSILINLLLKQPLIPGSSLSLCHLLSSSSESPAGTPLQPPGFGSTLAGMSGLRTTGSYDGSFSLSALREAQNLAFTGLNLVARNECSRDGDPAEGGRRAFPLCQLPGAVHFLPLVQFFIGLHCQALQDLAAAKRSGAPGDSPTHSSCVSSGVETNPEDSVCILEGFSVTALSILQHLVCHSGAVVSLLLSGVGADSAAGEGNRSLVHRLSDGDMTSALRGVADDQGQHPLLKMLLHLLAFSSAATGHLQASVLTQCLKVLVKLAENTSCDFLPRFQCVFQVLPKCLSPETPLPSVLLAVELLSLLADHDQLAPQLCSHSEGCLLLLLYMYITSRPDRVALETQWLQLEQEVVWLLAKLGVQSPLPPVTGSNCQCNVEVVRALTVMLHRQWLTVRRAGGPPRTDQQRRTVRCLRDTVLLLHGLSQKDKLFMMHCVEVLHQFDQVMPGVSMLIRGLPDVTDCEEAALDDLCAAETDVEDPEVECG

| Structure (SMILES) | sensitivity of TOV21G vs RMG1 [1] | Ki [2] [nM] | selective targeting of Arid1a−/− ES cells in clonogenic assays [3] | ATRi sensitivity caused by ARID1A siRNA [4] | ARID1A−/− selectivity [5] |
| --- | --- | --- | --- | --- | --- |
| CS(=O)(=O)c1ccc(-c2cnc(N)c(C(=O)Nc3ccccc3)n2)cc1 [VE-821, 3-amino-6-(4-methylsulfonylphenyl)-N-phenyl-pyrazine-2-carboxamide] | more sensitive to both VE-821 and VX-970 | 13 | selectively targeted Arid1a^−/− ES cells | significantly enhanced sensitivity to VE-821 | – |
| CN(Cc1cnc2nc(N)nc(N)c2n1)c1ccc(C(=O)N[C@@H](CCC(=O)O)C(=O)O)cc1 [methotrexate] | – | – | – | – | neither taxol or methotrexate elicited ARID1A^−/− selectivity |
| CC(=O)O[C@H]1C(=O)[C@@]2(C)[C@H]([C@H](OC(=O)c3ccccc3)[C@]3(O)C[C@H](OC(=O)[C@H](O)[C@@H](NC(=O)c4ccccc4)c4ccccc4)C(C)=C1C3(C)C)[C@]1(OC(C)=O)CO[C@@H]1C[C@@H]2O [taxol] | – | – | – | – | neither taxol or methotrexate elicited ARID1A^−/− selectivity |
